Experimental data as given in article PMC3961306, “Comparison of the Cancer Gene Targeting and Biochemical Selectivities of All Targeted Kinase Inhibitors Approved for Clinical Use” (PLoS ONE, 2014).
Where two headings read alike, the source gives them in different places.

Legend:
[1] = target: panel of more than 300 wild-type and mutant kinases (313 kinase panel) (Homo sapiens, UniProt O95819); test: Kinase profiling in a biochemical assay panel (mobility shift assays and ELISA), %-inhibition at 1 μM; selectivity entropy; details: kinase HGK; compound at 1 μM
[2] = target: panel of more than 300 wild-type and mutant kinases (313 kinase panel) (Homo sapiens, UniProt Q9UM73, R1275Q); test: as above
[3] = target: panel of more than 300 wild-type and mutant kinases (313 kinase panel) (Homo sapiens, UniProt P22612); test: as above; details: kinase PKACγ; 1 μM
[4] = target: T1, panel of more than 300 wild-type and mutant kinases (313 kinase panel) (Homo sapiens, UniProt Q16832); test: as above; details: kinase DDR2; compound at 1 μM
T1 sequence (Q16832 22-855): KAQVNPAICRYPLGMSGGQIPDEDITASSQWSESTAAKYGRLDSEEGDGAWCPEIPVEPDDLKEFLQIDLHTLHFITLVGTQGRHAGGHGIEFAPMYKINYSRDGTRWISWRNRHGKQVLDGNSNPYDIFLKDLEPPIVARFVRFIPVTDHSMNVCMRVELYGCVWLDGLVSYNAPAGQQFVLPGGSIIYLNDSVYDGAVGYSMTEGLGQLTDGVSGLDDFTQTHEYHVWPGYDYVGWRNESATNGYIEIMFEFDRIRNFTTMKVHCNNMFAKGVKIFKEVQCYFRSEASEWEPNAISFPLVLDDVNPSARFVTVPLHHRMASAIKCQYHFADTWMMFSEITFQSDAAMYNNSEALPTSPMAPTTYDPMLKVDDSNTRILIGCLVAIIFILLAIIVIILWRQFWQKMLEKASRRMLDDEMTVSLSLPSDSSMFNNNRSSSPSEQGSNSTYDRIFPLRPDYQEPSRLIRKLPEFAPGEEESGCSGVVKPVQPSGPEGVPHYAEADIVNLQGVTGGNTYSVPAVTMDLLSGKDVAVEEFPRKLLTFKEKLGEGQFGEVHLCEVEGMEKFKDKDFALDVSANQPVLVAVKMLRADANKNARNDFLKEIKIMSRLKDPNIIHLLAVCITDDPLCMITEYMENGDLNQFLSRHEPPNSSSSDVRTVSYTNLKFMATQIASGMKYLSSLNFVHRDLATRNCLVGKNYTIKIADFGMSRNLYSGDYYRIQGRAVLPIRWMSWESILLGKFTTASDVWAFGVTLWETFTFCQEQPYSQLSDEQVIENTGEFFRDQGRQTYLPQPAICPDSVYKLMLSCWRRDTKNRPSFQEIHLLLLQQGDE

[5] = target: panel of more than 300 wild-type and mutant kinases (313 kinase panel) (Homo sapiens, UniProt P19525); test: as above; details: kinase PKR; 1 μM
[6] = target: panel of more than 300 wild-type and mutant kinases (313 kinase panel) (Homo sapiens, UniProt Q00535); test: as above; details: kinase CDK5/p25; 1 μM compound
[7] = target: panel of more than 300 wild-type and mutant kinases (313 kinase panel) (Homo sapiens, UniProt P00533, L858R); test: as above; details: kinase EGFR(L858R); compound at 1 μM
[8] = target: panel of more than 300 wild-type and mutant kinases (313 kinase panel) (Homo sapiens, UniProt P00519, E255K); test: as above
[9] = test system: forty-four human cancer cell lines; test: Cell proliferation assay (ATPlite, 72 hours) in the 44 cell line Oncolines panel; format: cell-based; details: Homo sapiens
[10] = target: panel of more than 300 wild-type and mutant kinases (313 kinase panel) (Homo sapiens, UniProt P11362, V561M); test: Kinase profiling in a biochemical assay panel (mobility shift assays and ELISA), %-inhibition at 1 μM; selectivity entropy; details: kinase FGFR1(V561M); compound at 1 μM
[11] = A 172, read-out: cell panel IC50, A-172
[12] = A498, read-out: cell panel IC50, A-498
[13] = A549, read-out: cell panel IC50, A-549
[14] = A-427, read-out: cell panel IC50, A-427
[15] = AU565, read-out: cell panel IC50, AU-565
[16] = BT-549, read-out: cell panel IC50, BT-549
[17] = HCT-116, read-out: cell panel IC50, HCT-116
[18] = K562, read-out: cell panel IC50, K-562
[19] = LS174T, read-out: cell panel IC50, LS 174T

With CNC(=O)c1cc(Oc2ccc(NC(=O)Nc3ccc(Cl)c(C(F)(F)F)c3)c(F)c2)ccn1 [regorafenib] the “%-inhibition of HGK” value [1] was 53%, the “%-inhibition, ALK(R1275Q)” value ([2]; kinase ALK(R1275Q), 1 μM compound) was 5% and the “%-inhibition of PKACγ” value [3] was -0.823%. For the same molecule, the “%-inhibition of DDR2” value [4] was 102%, the “%-inhibition of PKR” value [5] was -4.48% and the “%-inhibition, CDK5/p25” value [6] was -19%. The “%-inhibition of EGFR(L858R)” value [7] was 2.24%, the “%-inhibition, ABL(E255K)” value ([8]; kinase ABL(E255K), 1 μM compound) was 33% and the IC50 [9, 11] was 3.95 µM. The IC50 ([9]; A204, cell line A-204, read-out: cell panel IC50, A-204) was 3.01 µM, the IC50 [9, 12] was 3.41 µM and the IC50 [9, 13] was 2.92 µM. It also gave an IC50 ([9]; A-375, cell line A375, read-out: cell panel IC50, A375) of 3.56 µM, an IC50 [9, 14] of 8.73 µM and an IC50 [9, 15] of 0.687 µM. For the same molecule, the IC50 [9, 16] was 16.6 µM, the IC50 [9, 17] was 3.51 µM and the IC50 [9, 18] was 4.17 µM. For the same molecule, the IC50 [9, 19] was 3.76 µM, the IC50 ([9]; SHP77, cell line SHP-77, read-out: cell panel IC50, SHP-77) was over 31.6 µM and the IC50 ([9]; SW-620, cell line SW620, read-out: cell panel IC50, SW620) was 9.66 µM. For the same molecule, the IC50 ([9]; U2OS, cell line U-2 OS, read-out: cell panel IC50, U-2 OS) was 3.08 µM, the IC50 ([9]; cell line J82, read-out: cell panel IC50, J82) was 3.27 µM and the IC50 ([9]; cell line PA-1, read-out: cell panel IC50, PA-1) was 2.96 µM. It also gave an IC50 ([9]; cell line SJCRH30, read-out: cell panel IC50, SJCRH30) of 10.7 µM, an IC50 ([9]; cell line SR, read-out: cell panel IC50, SR) of 3.1 µM and an IC50 ([9]; U-87 MG cell line, ATPlite, 72 hours, read-out: IC50 in cell proliferation assay (table S5 cellpanel data)) of 11.8 µM. For the same molecule, the IC50 ([9]; cell line 769-P, read-out: cell panel IC50, 769-P) was 2.9 µM, the IC50 ([9]; cell line 786-0, read-out: cell panel IC50, 786-0) was 7.29 µM and the IC50 ([9]; cell line ACHN, read-out: cell panel IC50, ACHN) was 1.82 µM. It also gave an IC50 ([9]; cell line AN3 CA, read-out: cell panel IC50, AN3 CA) of 5.84 µM, an IC50 ([9]; cell line BT-20, read-out: cell panel IC50, BT-20) of 3.93 µM and an IC50 ([9]; cell line BxPC-3, read-out: cell panel IC50, BxPC-3) of 4 µM. For the same molecule, the IC50 ([9]; cell line C-33 A, read-out: cell panel IC50, C-33 A) was 1.02 µM, the IC50 ([9]; cell line CAL 27, read-out: cell panel IC50, CAL 27) was 1.54 µM and the IC50 ([9]; cell line CCRF-CEM, read-out: cell panel IC50, CCRF-CEM) was 9.54 µM. For the same molecule, the IC50 ([9]; cell line DLD-1, read-out: cell panel IC50, DLD-1) was 3.54 µM, the IC50 ([9]; cell line FaDu, read-out: cell panel IC50, FaDu) was 1.62 µM and the IC50 ([9]; cell line HCT-15, read-out: cell panel IC50, HCT-15) was 3.15 µM. The IC50 ([9]; cell line Hs 578T, read-out: cell panel IC50, Hs 578T) was 22.6 µM, the IC50 ([9]; cell line Jurkat E6.1, read-out: cell panel IC50, Jurkat E6.1) was 2.52 µM and the IC50 ([9]; cell line LoVo, read-out: cell panel IC50, LoVo) was 2.7 µM. The IC50 ([9]; cell line MG-63, read-out: cell panel IC50, MG-63) was 3.63 µM, the IC50 ([9]; cell line MOLT-4, read-out: cell panel IC50, MOLT-4) was 3.31 µM and the IC50 ([9]; cell line MeWo, read-out: cell panel IC50, MeWo) was 30.8 µM. For the same molecule, the IC50 ([9]; cell line NCI-H82, read-out: cell panel IC50, NCI-H82) was 3.58 µM, the IC50 ([9]; cell line NCI-H460, read-out: cell panel IC50, NCI-H460) was 3.95 µM and the IC50 ([9]; cell line OVCAR-3, read-out: cell panel IC50, OVCAR-3) was 3.63 µM. The IC50 ([9]; cell line RPMI-7951, read-out: cell panel IC50, RPMI-7951) was 5.88 µM, the IC50 ([9]; cell line SK-N-AS, read-out: cell panel IC50, SK-N-AS) was 6.43 µM and the IC50 ([9]; cell line SW48, read-out: cell panel IC50, SW48) was 1.01 µM. It also gave an IC50 ([9]; cell line SW480, read-out: cell panel IC50, SW480) of over 31.6 µM.

With N#CC[C@H](C1CCCC1)n1cc(-c2ncnc3[nH]ccc23)cn1 [ruxolitinib] the “%-inhibition of HGK” value [1] was 1.09%, the “%-inhibition of FGFR1(V561M)” value [10] was 50% and the “%-inhibition, ALK(R1275Q)” value ([2]; 1 µM) was 49%. For the same molecule, the “%-inhibition of PKACγ” value [3] was 11%, the “%-inhibition of DDR2” value [4] was 49% and the “%-inhibition of PKR” value [5] was -6%. For the same molecule, the “%-inhibition, CDK5/p25” value [6] was -16%, the “%-inhibition of EGFR(L858R)” value [7] was -4% and the “%-inhibition, ABL(E255K)” value ([8]; 1 µM) was 0.0579%. The IC50 ([9]; 4-4 cell, read-out: cell panel IC50, J82) was over 31.6 µM, the IC50 ([9]; 4-4 cell, read-out: cell panel IC50, PA-1) was 26.9 µM and the IC50 ([9]; 4-4 cell, read-out: cell panel IC50, SJCRH30) was 25.4 µM. It also gave an IC50 ([9]; 4-4 cell, read-out: cell panel IC50, SR) of 4.44 µM, an IC50 ([9]; 769-P, read-out: cell panel IC50, 769-P) of 18.4 µM and an IC50 ([9]; 786-0, read-out: cell panel IC50, 786-0) of over 31.6 µM. The IC50 [9, 11] was 31.5 µM, the IC50 ([9]; A204, read-out: cell panel IC50, A-204) was over 31.6 µM and the IC50 [9, 12] was over 31.6 µM. For the same molecule, the IC50 [9, 13] was 21.9 µM, the IC50 ([9]; A-375, read-out: cell panel IC50, A375) was over 31.6 µM and the IC50 [9, 14] was 11.7 µM. It also gave an IC50 ([9]; ACHN, read-out: cell panel IC50, ACHN) of over 31.6 µM, an IC50 ([9]; AN3-CA, read-out: cell panel IC50, AN3 CA) of 9.88 µM and an IC50 [9, 15] of 28.3 µM. It also gave an IC50 ([9]; BT-20, read-out: cell panel IC50, BT-20) of over 31.6 µM, an IC50 [9, 16] of over 31.6 µM and an IC50 ([9]; BXPC-3, read-out: cell panel IC50, BxPC-3) of 16.2 µM. The IC50 ([9]; C-33-A, read-out: cell panel IC50, C-33 A) was 9.4 µM, the IC50 ([9]; CAL-27, read-out: cell panel IC50, CAL 27) was over 31.6 µM and the IC50 ([9]; CCRF-CEM, read-out: cell panel IC50, CCRF-CEM) was 29 µM. The IC50 ([9]; DLD-1, read-out: cell panel IC50, DLD-1) was 31.1 µM, the IC50 ([9]; FaDu, read-out: cell panel IC50, FaDu) was over 31.6 µM and the IC50 ([9]; HCT-15, read-out: cell panel IC50, HCT-15) was 25.3 µM. It also gave an IC50 [9, 17] of 30 µM, an IC50 ([9]; Hs-578T, read-out: cell panel IC50, Hs 578T) of over 31.6 µM and an IC50 ([9]; Jurkat E6.1, read-out: cell panel IC50, Jurkat E6.1) of 21.5 µM. It also gave an IC50 [9, 18] of 26.4 µM, an IC50 [9, 19] of 30.8 µM and an IC50 ([9]; LoVo, read-out: cell panel IC50, LoVo) of 24.4 µM. The IC50 ([9]; MG-63, read-out: cell panel IC50, MG-63) was 26.2 µM, the IC50 ([9]; MOLT-4, read-out: cell panel IC50, MOLT-4) was 21.8 µM and the IC50 ([9]; MeWo, read-out: cell panel IC50, MeWo) was over 31.6 µM. The IC50 ([9]; NCI-H82, read-out: cell panel IC50, NCI-H82) was 21 µM, the IC50 ([9]; NCI-H460, read-out: cell panel IC50, NCI-H460) was 27 µM and the IC50 ([9]; OVCAR-3, read-out: cell panel IC50, OVCAR-3) was over 31.6 µM. It also gave an IC50 ([9]; RPMI-7951, read-out: cell panel IC50, RPMI-7951) of 15.6 µM, an IC50 ([9]; SHP77, read-out: cell panel IC50, SHP-77) of 31.2 µM and an IC50 ([9]; SK-N-AS, read-out: cell panel IC50, SK-N-AS) of 21.1 µM. It also gave an IC50 ([9]; SW48, read-out: cell panel IC50, SW48) of 19.5 µM, an IC50 ([9]; SW480, read-out: cell panel IC50, SW480) of over 31.6 µM and an IC50 ([9]; SW-620, read-out: cell panel IC50, SW620) of 28.4 µM. It also gave an IC50 ([9]; U2OS, read-out: cell panel IC50, U-2 OS) of 25.1 µM and an IC50 ([9]; U-87 MG, 72 h, read-out: IC50 in cell proliferation assay (table S5 cellpanel data)) of over 31.6 µM.
